Consider 16 compounds from paper PMC6522510 (Nature Communications, 2019).

Holding throughout (set-up): species or system AML cell lines (8); Primary HTS, single concentration about 10 uM, Cell Titer Glo viability; log10 luminescence, per cent inhibition relative to cycloheximide control
What all share (conditions): 72 h, relative to cycloheximide control, log10 luminescence, inhibitor
On the technique in general: Cellular ATP, detected with luciferase, serves as a proxy for viable cell number.

Test [1] relates to MOLM-13.
In test [2] the test system is U937.
Test [3] has as its system CMK.
Test [4] concerns ML-2.
The test system of test [5] is MV4-11.
Test [6] deals with M07e.
Test [7] has as its system CHRF288-11.
The subject of test [8] is CMS.

Structures can show the parent of a compound that is named as a salt. Where two headings read alike, the source gives them in different places.

Regarding `CNC(=O)[C@@H](NC(=O)[C@H](CC(C)C)[C@H](O)C(=O)NO)C(C)(C)C` [SJ000772411-1], the MOLM-13 %inh in test [1] (MOLM-13 %inh, 10 µM) came to 2.673%. Moreover, the U937 %inh in test [2] (U937 %inh, 10 µM) was 2.038%. Also, the CMK %inh in test [3] (CMK %inh, 10 µM) was -3.077%. The ML-2 %inh in test [4] (ML-2 %inh, 10 µM) is given as 1.691%. Moreover, the MV4-11 %inh in test [5] (MV4-11 %inh, 10 µM) is recorded as -4.036%. Also, in test [6] (M07e %inh, 10 µM), the M07e %inh was -0.5084%. Moreover, the CHRF288-11 %inh in test [7] (CHRF288-11 %inh, 10 µM) is 14.63%. Also, in test [8] (CMS %inh, 10 µM), the CMS %inh was -1.756%.

For `CO[C@@H]1[C@H](OC(=O)/C=C/C=C/C=C/C=C/C(=O)O)CC[C@]2(CO2)[C@H]1[C@@]1(C)O[C@@H]1CC=C(C)C` [SJ000556696-1, FUMAGILLIN], the MOLM-13 %inh in test [1] (MOLM-13 %inh, 10 µM) is recorded as 6.124%. In addition, the U937 %inh in test [2] (U937 %inh, 10 µM) is 19.23%. Also, the CMK %inh in test [3] (CMK %inh, 10 µM) is reported as -0.5821%. Further, in test [4] (ML-2 %inh, 10 µM), the ML-2 %inh is on record as 2.951%. For the same compound, in test [5] (MV4-11 %inh, 10 µM), the MV4-11 %inh was determined as 13.12%. Further, in test [6] (M07e %inh, 10 µM), the M07e %inh stood at 2.083%. Moreover, the CHRF288-11 %inh in test [7] (CHRF288-11 %inh, 10 µM) is recorded as 12.42%. Also, the CMS %inh in test [8] (CMS %inh, 10 µM) worked out at 10.64%.

For `Fc1cccc(COc2ccc(Nc3ncnc4sc(-c5cccs5)cc34)cc2Cl)c1` [SJ000573122-1, U22476/39/1], in test [1], the MOLM-13 %inh is listed as 3.265%. The U937 %inh in test [2] turned out to be 3.407%. The CMK %inh in test [3] is 1.871%. For the same compound, in test [4], the ML-2 %inh came to 0.7454%. Also, the MV4-11 %inh in test [5] was -2.021%. Moreover, in test [6], the M07e %inh was -0.3704%. In test [7], the CHRF288-11 %inh is -6.815%. In test [8], the CMS %inh is reported as -1.772%.

As to `C[C@@H](Oc1cc(-n2cnc3ccc(OCC4CCN(C)CC4)cc32)sc1C(N)=O)c1ccccc1Cl` [SJ000573039-1, U21976/12/1], the MOLM-13 %inh in test [1] stood at 92.23%. Besides, the U937 %inh in test [2] is reported as 67.65%. Moreover, the CMK %inh in test [3] was determined as 58.58%. For the same compound, the ML-2 %inh in test [4] was determined as 55.39%. The MV4-11 %inh in test [5] came out at 68.81%. In test [6], the M07e %inh is 70.45%. Besides, the CHRF288-11 %inh in test [7] is 126.6%. In addition, in test [8], the CMS %inh is given as 55.73%.

On to `O=S(=O)(CCNCc1ccc(-c2ccc3ncnc(Nc4ccc(OCc5cccc(F)c5)c(Cl)c4)c3c2)o1)c1ccccc1` [SJ000573010-1, U15277/78/1], for which, in test [1], the MOLM-13 %inh was 2.488%. Further, the U937 %inh in test [2] is listed as 1.807%. Besides, the CMK %inh in test [3] was 1.889%. For the same compound, the ML-2 %inh in test [4] was determined as 0.08634%. The MV4-11 %inh in test [5] is given as -1.134%. In test [6], the M07e %inh was -3.622%. The CHRF288-11 %inh in test [7] is given as -1.699%. In addition, the CMS %inh in test [8] was -1.695%.

With `CN1C[C@@H]2Cn3c(c(C4=C(c5cn(C)c6ccccc56)C(=O)NC4=O)c4ccccc43)C[C@H]2C1` [SJ000581133-2], the MOLM-13 %inh in test [1] was found to be 14.65%. The U937 %inh in test [2] was found to be 4.609%. Also, the CMK %inh in test [3] worked out at 11.96%. Moreover, the ML-2 %inh in test [4] was 1.581%. Further, the MV4-11 %inh in test [5] amounted to 12.86%. Moreover, the M07e %inh in test [6] stood at 4.251%. Further, the CHRF288-11 %inh in test [7] came to 9.973%. The CMS %inh in test [8] was -1.372%.

As for `COc1ccc(-c2cc3c(N)ncnc3o2)cc1` [SJ000573220-1, R6872/65/2], in test [1], the MOLM-13 %inh is recorded as 4.813%. The U937 %inh in test [2] is listed as -1.174%. Further, the CMK %inh in test [3] is 5.591%. In addition, the ML-2 %inh in test [4] was 2.103%. In test [5], the MV4-11 %inh is listed as -2.253%. Also, the M07e %inh in test [6] stood at 10.8%. The CHRF288-11 %inh in test [7] was 23.46%. In test [8], the CMS %inh turned out to be 5.247%.

Take `COC(=O)Nc1nc2ccc(Oc3ccc(NC(=O)Nc4cc(C(F)(F)F)ccc4F)cc3)cc2s1` [SJ000573286-1, T277/77/2]: in test [1], the MOLM-13 %inh is on record as 27.47%. The U937 %inh in test [2] was -3.236%. Moreover, the CMK %inh in test [3] was 4.078%. Further, the ML-2 %inh in test [4] is on record as 3.773%. For the same compound, the MV4-11 %inh in test [5] is reported as 23.01%. The M07e %inh in test [6] was found to be 9.62%. In test [7], the CHRF288-11 %inh was 2.804%. For the same compound, the CMS %inh in test [8] is listed as -2.124%.

Regarding `O=C(NCC1CC1)c1ccc(-c2cccc(C(=O)NC3CC3)c2)cc1` [SJ000573345-1, R5419/155/1], the MOLM-13 %inh in test [1] stood at 4.094%. For the same compound, the U937 %inh in test [2] worked out at 0.894%. In addition, in test [3], the CMK %inh is listed as 6.153%. Further, the ML-2 %inh in test [4] was determined as 0.3479%. For the same compound, the MV4-11 %inh in test [5] came out at 3.005%. The M07e %inh in test [6] came out at 0.9268%. The CHRF288-11 %inh in test [7] is -1.419%. Moreover, the CMS %inh in test [8] is given as 0.2631%.

As to `O=C(O)Cc1cccc2c(=O)c([N+](=O)[O-])c(-c3ccccc3[N+](=O)[O-])oc12` [SJ000772406-1, AMINOPEPTIDASE N INHIBITOR], the MOLM-13 %inh in test [1] is given as -3.246%. Moreover, the U937 %inh in test [2] is on record as -3.753%. Also, the CMK %inh in test [3] was -2.215%. Besides, in test [4], the ML-2 %inh was 1.312%. Further, in test [5], the MV4-11 %inh is given as -1.986%. Also, in test [6], the M07e %inh is -0.1255%. Besides, in test [7], the CHRF288-11 %inh was 5.038%. For the same compound, the CMS %inh in test [8] is -0.7017%.

For `c1ccc(-c2n[nH]cc2-c2ccnc(-c3ccc(OCCN4CCOCC4)cc3)c2)nc1` [SJ000573279-1, FVLN/241/86/2], in test [1], the MOLM-13 %inh is on record as 4.641%. In addition, in test [2], the U937 %inh is listed as -1.579%. In test [3], the CMK %inh is 0.1656%. In addition, the ML-2 %inh in test [4] is on record as -0.6736%. For the same compound, in test [5], the MV4-11 %inh is given as 1.132%. Further, the M07e %inh in test [6] is -4.621%. Moreover, in test [7], the CHRF288-11 %inh turned out to be 1.18%. Besides, the CMS %inh in test [8] is listed as -2.932%.

On to `CS(=O)(=O)CCNCc1nc(-c2ccc3ncnc(Nc4ccc(OCc5cccc(C(F)(F)F)c5)cc4)c3c2)cs1` [SJ000573071-1, U14859/60/2], for which the MOLM-13 %inh in test [1] is 70.81%. Also, the U937 %inh in test [2] is 0.6329%. Besides, the CMK %inh in test [3] is reported as 3.287%. Also, in test [4], the ML-2 %inh is listed as 1.048%. The MV4-11 %inh in test [5] is 64.74%. The M07e %inh in test [6] was 1.42%. Also, in test [7], the CHRF288-11 %inh is reported as -1.328%. Further, in test [8], the CMS %inh came out at 1.221%.

With `FC(F)(F)c1ccc(-c2nn3ncccc3c2-c2ccnc(Nc3ccc4c(c3)OCCO4)n2)cc1` [SJ000573225-1, U17838/185/2], the MOLM-13 %inh in test [1] is on record as -3.312%. For the same compound, the U937 %inh in test [2] was -2.674%. Also, the CMK %inh in test [3] is on record as -4.267%. For the same compound, in test [4], the ML-2 %inh is reported as 1.234%. Further, in test [5], the MV4-11 %inh came to 7.035%. Moreover, the M07e %inh in test [6] is recorded as 2.059%. For the same compound, the CHRF288-11 %inh in test [7] is listed as 13.54%. Besides, the CMS %inh in test [8] is recorded as -3.296%.

As for `CCC[C@@H]1CC2=CC(=O)CC[C@]2(C)[C@H]2CC[C@@]3(C)[C@@H](CC[C@@]3(O)CCC(=O)O)[C@H]12` [SJ000546509-1, RU 28318], in test [1], the MOLM-13 %inh worked out at 5.695%. For the same compound, in test [2], the U937 %inh is recorded as -0.6477%. Further, the CMK %inh in test [3] worked out at 5.542%. For the same compound, the ML-2 %inh in test [4] is given as 3.121%. In addition, the MV4-11 %inh in test [5] was 0.6325%. Also, the M07e %inh in test [6] is listed as 2.635%. For the same compound, in test [7], the CHRF288-11 %inh was 5.992%. Further, in test [8], the CMS %inh is given as 2.41%.

Consider `Cc1ccccc1N1CCN(CCc2nnc3n2CCCC3)CC1` [SJ000565164-1, DAPIPRAZOLE HYDROCHLORIDE], for which the MOLM-13 %inh in test [1] (MOLM-13 %inh, 10 µM) is on record as 25.76%. The U937 %inh in test [2] (U937 %inh, 10 µM) is reported as -2.961%. Besides, the CMK %inh in test [3] (CMK %inh, 10 µM) is given as -9.616%. Also, the ML-2 %inh in test [4] (ML-2 %inh, 10 µM) was found to be 2.518%. In addition, the MV4-11 %inh in test [5] (MV4-11 %inh, 10 µM) is -2.751%. In addition, the M07e %inh in test [6] (M07e %inh, 10 µM) was -1.247%. Also, the CHRF288-11 %inh in test [7] (CHRF288-11 %inh, 10 µM) came out at 8.203%. Besides, in test [8] (CMS %inh, 10 µM), the CMS %inh is reported as -1.478%.

As for `Nc1c(C(=O)c2cccc(-c3ccc[n+]([O-])c3)c2)cnn1-c1ccc(F)cc1F` [SJ000581156-1], the MOLM-13 %inh in test [1] stood at 3.379%. Besides, in test [2], the U937 %inh stood at 3.963%. For the same compound, the CMK %inh in test [3] is listed as 6.727%. Also, in test [4], the ML-2 %inh turned out to be 2.597%. In addition, the MV4-11 %inh in test [5] is given as 2.306%. In addition, in test [6], the M07e %inh is 5.956%. For the same compound, the CHRF288-11 %inh in test [7] came to 0.7431%. The CMS %inh in test [8] is -0.9836%.
